Laboratory results taken from publication PMC3130785, “Small Compound 6-O-Angeloylplenolin Induces Mitotic Arrest and Exhibits Therapeutic Potentials in Multiple Myeloma” (PLoS ONE, 2011).

Experiments:
[1] = test system: CD138+ primary cells harvested from 7 MM patients; assay: MTT assay on primary MM cells; type: cell-based, human
Text: CD138+ cells from 7 MM patients were isolated with informed consent from BM mononuclear cells by using positive immunomagnetic column separation (Miltenyi Biotech, Auburn, CA). The purity of CD138+ cells is above 97% as determined by flow cytometry. BMSCs were generated from a MM patient-derived CD138-negative BM mononuclear cells cultured for 5 weeks. Peripheral blood mononuclear cells (PBMCs) from 5 healthy donors were separated by Ficoll-Hipaque density sedimentation.
U266, RPMI 8226 cells (1×10^4), primary CD138+ cells, PBMCs (5×10^4), and BMSCs (1×10^4) were cultured in 96-well dishes and incubated without or with 6-OAP at indicated concentration for 48 h. MM.1S and MM.1R cells (2×10^4) were seeded into 96-well dishes and pre-cultured for 24 h, then treated with 6-OAP for 48 h. Cell proliferation was determined by MTT assay. Cell viability was estimated by trypan blue dye exclusion.

[2] = test system: phosphorylated H3 (pH3); assay: Western blotting of mitotic marker; type: cell-based, human; settings: U266, MM.1S and CD138+ primary cells; 24 h
Procedure: Cell pellets were lysed in RIPA buffer containing 50 mM Tris pH 8.0, 150 mM NaCl, 0.1% SDS, 0.5% deoxycholate, 1% NP-40, 1 mM DTT, 1 mM NaF, 1 mM sodium vanadate, and protease inhibitors cocktail (Sigma). For immunoprecipitations, cells were lysed on ice for 15 minutes in RIPA buffer. Lysates were centrifuged. The supernatant was incubated with indicated antibodies overnight, after which protein A/G Plus beads (Santa Cruz Biotechnology) were added and incubated for 3 h. The beads were washed 4 times in RIPA buffer. Then the beads were resuspended in 1× sample buffer and boiled for 3 min. Protein extracts were quantitated and loaded on 8% to 12% sodium dodecyl sulfate polyacrylamide gel, electrophoresed, and transferred to a nitrocellulose membrane (Whatman). The membrane was incubated with primary antibody, washed, and incubated with horseradish peroxidase (HRP)–conjugated secondary antibody (Pierce). Detection was performed by using a chemiluminescent western detection kit (Cell Signaling). […]
Figure 2 6-OAP induces mitotic arrest in MM cells. […] Cell cycle distribution was determined by flow cytometry. […] Cell cycle distribution was determined by flow cytometry. […]

[3] = test system: Staphylococcus aureus; parameters: method as in PMID 9461679, PMID 8657743, PMID 12521264; settings: cited from earlier work

CC=C(C)C(=O)OC1C2C(CC(C)C3C=CC(=O)C31C)OC(=O)C2C (stereo not drawn) [6-OAP, 6-O-angeloylplenolin]
cell growth of CD138+ primary cells [1]: suppressed cell growth
expression of pH3 [2]: up-regulated pH3
antibacterial activity [3]: exhibit antibacterial activity
